This note sets out measurements from patent publication US20100111874A1, “METHOD OF CANCER DETECTION AND TREATMENT” (University of Medicine and Dentistry of New Jresey, priority 2007, published 2010).

For assay [1], the system named is ZR-75-1 cells stably expressing ISG15 or UbcH8 shRNA. Kind of assay: Clonogenic survival assay. The format is cell-based. How it is done: Cell survival assays. MTT assay: Cells (3000 cells/well) are plated in 96-well microtiter plates and incubated at 37° C. in a CO2 incubator. For determination of IC50, cells are treated with varying concentrations of CPT for four days. Cells are then incubated with MTT (3-(4,5-dimethylthiazol-2-yl)-2,5-diphenyltetrazolium bromide) for 4 hrs at 37° C. The dye produced by viable cells is dissolved in DMSO and the optical density measured at 570 nm. All assays are performed at least twice in six replicate wells. Clonogenic assay: Cells (100-500 cells/plate) are plated in 6-well tissue culture plates and incubated at 37° C. in a CO2 incubator. Cells are then treated with various concentrations of CPT for 1 hr. Following CPT treatment, cells are washed free of CPT and placed in fresh medium. After 10 days, survived colonies are stained with Methylene blue and counted using the Minicount machine. Cell counting assay: Logarithmically growing cells are treated with various concentrations of CPT for 1 hr. CPT is then removed by washing the plates with CPT-free medium four times. […] Cell survival is determined by counting cells using the Coulter counter after trypsinization.
Example No. 3. […] Cell lysates of ZR-75-1 clones expressing either control shRNA (lane #1) or ISG15 shRNA (lanes #2) are analyzed by 15% SDS-PAGE. […] Equal protein loading is assessed by re-probing the same membrane with anti-tubulin antibody (lower panel). […] Equal protein loading is assessed by re-probing the same membrane blot with anti-tubulin antibody (lower panels).
Example No. 4. […] Cell lysates prepared from ZR-75-1 clones expressing either control shRNA (lane #1) or UbcH8 shRNA (lanes #2 and 3, from two independent clones), and the purified UbcH8 protein (lane #4) are analyzed by 15% SDS-PAGE. […] Equal protein loading is assessed by re-probing the same membrane with anti-tubulin antibody (lower panels). […] Cell lysates prepared from ZR-75-1 clones expressing either control shRNA (lane #1) or UbcH8 shRNA (lanes #2 and 3, two independent clones), and the purified UbcH8 protein (lane #4) are analyzed by 15% SDS-PAGE. […]

Assay [2] has as its target T1, TOP1-DNA covalent complexes (Homo sapiens, UniProt P11387).
T1 construct: endogenous in cells; host or cells: MCF7 and MCF7/RC breast cancer cells
T1 sequence (P11387 2-765 limits assumed): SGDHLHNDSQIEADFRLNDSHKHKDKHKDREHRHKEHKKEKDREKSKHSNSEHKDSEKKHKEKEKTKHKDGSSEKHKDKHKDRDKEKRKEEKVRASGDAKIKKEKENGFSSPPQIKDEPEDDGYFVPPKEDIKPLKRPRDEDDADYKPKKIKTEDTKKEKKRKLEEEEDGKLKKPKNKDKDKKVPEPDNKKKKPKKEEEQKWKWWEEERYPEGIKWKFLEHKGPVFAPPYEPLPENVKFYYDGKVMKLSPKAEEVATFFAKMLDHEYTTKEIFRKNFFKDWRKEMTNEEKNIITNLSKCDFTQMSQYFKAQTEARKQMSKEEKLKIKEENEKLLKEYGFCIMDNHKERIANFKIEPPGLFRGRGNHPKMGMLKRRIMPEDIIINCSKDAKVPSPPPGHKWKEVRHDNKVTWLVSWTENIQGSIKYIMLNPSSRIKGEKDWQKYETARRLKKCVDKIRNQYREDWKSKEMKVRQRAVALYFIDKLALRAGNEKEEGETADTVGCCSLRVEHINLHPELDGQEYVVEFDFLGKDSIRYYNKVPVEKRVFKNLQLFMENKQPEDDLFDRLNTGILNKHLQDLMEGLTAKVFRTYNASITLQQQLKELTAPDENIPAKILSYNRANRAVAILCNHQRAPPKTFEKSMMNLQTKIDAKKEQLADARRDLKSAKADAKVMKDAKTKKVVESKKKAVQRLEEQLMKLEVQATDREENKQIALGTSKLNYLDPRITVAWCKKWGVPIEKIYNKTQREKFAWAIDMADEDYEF
The experiment in a line: Band depletion assay for TOP1 cleavage complexes. The assay is classed as cell-based. Particulars: MCF7/RC vs MCF7; CPT 25 μM for 15 min. How it is done:
Band depletion assay for TOP1 cleavage complexes. Cells (106/sample) are treated with CPT (25 μM in 1% DMSO) for various times at 37° C. Cells are then lysed with 0.2 N NaOH containing 2 mM EDTA as described previously (14). Cell lysates are then neutralized with 1/10 volume of a solution containing 10% NP-40, 1 M Tris (pH 7.4), 0.1 M MgCl2, 0.1 M CaCl2, 10 mM dithiothreitol, 1 mM EGTA, and a mixture of peptide protease inhibitors (100 μg/ml each of leupeptin, pepstatin, and aprotinin), followed by the addition of another 1/10 volume of 2 N HCl. Reactions are terminated by the addition of SDS-PAGE sample buffer. Immunoblotting analysis of cell lysates is carried out using anti-Scl-70 antibody from scleroderma patients as described above.

For `CC[C@@]1(O)C(=O)OCc2c1cc1n(c2=O)Cc2cc3ccccc3nc2-1` [CPT, camptothecin], the “resistance to CPT, clonogenic survival” value in assay [1] (ZR/ISG15-shRNA1 vs control-shRNA cells, one hr acute exposure) was “much more resistant”; in assay [1] (ZR/UbcH8-shRNA1 vs ZR/control-shRNA2, one-hr acute CPT exposure), “much more resistant”; in assay [1] (ZR/UbcH8-shRNA2 vs ZR/control-shRNA2, one-hr acute CPT exposure), “much more resistant”. In assay [2], the “amount of TOP1-DNA covalent complexes” value was “No change”.
